Experimental data from US5232922A, “Imidazole compounds, processes for their preparation, pharmaceuticals based on these compounds and some intermediates” (priority 1990, dated 1993).
Counter-ions that a name gives are not always drawn. Like-named read-outs stand apart in the source and are kept apart here.

What was measured:
[1] = tested on: skeletal muscle of the rat (chronic ischemic); test: Effect on the contractility of the skeletal muscle after chronic ischemia (tiring index); assay type: in vivo, rat (male Wistar); details: for TI of ischemic treated muscle: tiring index = maximum contractility / residual force after 5 min stimulation; for change in vivo at 6 mg/kg: Rattus norvegicus, po, 168 h, read-out: Percentage change (TI of ischemic treated muscle vs TI of normal non-treated muscle)
From the text: 1) Effect on the Contractility of the Skeletal Muscle After Chronic Ischemia
In recent years, a marked change has taken place in ideas about the pathophysiology of chronic peripheral arterial occlusive disease as scientific interest has to an increasing extent shifted from the macrocirculation to the microcirculation. Disturbances in the microcirculation therefore manifest themselves in an undersupply of substrates with tissue ischemia resulting therefrom which, in turn, leads to an impairment in the function of the extremity concerned. The logical consequence of this is that the target organ skeletal muscle comes more and more into the forefront. […] The clinical activity is in fact also consistently determined in humans with the aid of the painless walking distance on the moving walkway.
Male Wistar rats having a body weight of 380 to 410 g were used as experimental animals. Under hexobarbital anesthesia (®Evipan--sodium, 200 mg/kg BW (=body weight) i.p.), a unilateral ligature of the right femoral artery was applied to the animals in the groin. After sprinkling penicillin sulfonamide powder for antibiotic wound care, the small operation wound was closed and the animals were continuously observed until they were completely awake. One week later, the administration of substance began by oral administration using a stomach tube (6 mg/kg BW, carboxymethylcellulose-sodium suspension) and was continued for 7 days (single administration per day, about 7h30 to 8h30). The contractility was measured 24 h after the last administration of substance in order to exclude acute effects, to be precise by the following experimental protocol:
Superfusion with physiological saline solution (37° C.) was used to avoid drying out and cooling. The mean arterial blood pressure was recorded continuously via Statham (=blood pressure measuring device) by means of a cannulated caroted artery to control the physiological status of the animals during the experiment. All animals breathed spontaneously by means of an inserted tracheal tube.
After these preparations, the muscle was made to contract (Stimulator I, Hugo Sachs, Federal Republic of Germany) by direct electrical stimulation (2.5 mA, 2 Hz). The absolute contractility in grams at various times of stimulation was used as the measured parameter. […] If the maximum contractility at the start of stimulation is now divided by the residual force remaining after 5 minutes' tiring stimulation, a "tiring index TI" for the muscle concerned can be calculated; the ability to tire here is larger the larger TI is numerically.
4 to 6 individual experiments were carried out for each test preparation.

[2] = tested on: laser-induced thrombosis in mesenterial arterioles; test: Inhibition of laser-induced thrombosis in mesenterial arterioles of the rat; assay type: in vivo, rat (female Sprague-Dawley); details: for inhibition in vivo at 10 mg/kg: 10 mg/kg p.o.
[3] = Acute toxicity (LD50 range); details: mouse, in vivo, single administration, NMRI mice, 7 days
Description: The determination of the LD50 ranges was carried out in standard fashion by means of the mortality occurring in the course of 7 days in NMRI mice after single intravenous (i.v.) or intraperitoneal (i.p.) administration (NMRI=NIH Medical Research Institute).

[4] = 6 mg/kg p.o. over 7 days, n = 4-6
[5] = 6 mg/kg p.o. over 7 days, n = 4-6, smaller value = more effective
[6] = Rattus norvegicus, po, read-out: Percentage change vs control (inhibition of laser-induced thrombosis)
[7] = Rattus norvegicus, po, 20 mg/kg p.o., read-out: Percentage change vs control (inhibition of laser-induced thrombosis)

Row | Compound | TI of ischemic treated muscle [1, 4] | change in vivo at 6 mg/kg [1, 5] | further results
1 | Cn1cnc(S(=O)(=O)NCCc2ccc(O)cc2)c1Cl [Example 46, N-(4-hydroxyphenethyl-)-5-chloro-1-methyl-4-imidazolesulfonamide] | 2.05 | -6.4% | inhibition in vivo at 10 mg/kg [2, 6]: 29%; inhibition in vivo at 30 mg/kg ([2]; Rattus norvegicus, po, 30 mg/kg p.o., read-out: Percentage change vs control (inhibition of laser-induced thrombosis)): 29%; LD50 at 168 h ([3]; ip): > 1200 mg/kg
2 | CN1CCN(CCCNS(=O)(=O)c2cn(C)cn2)CC1 [Example 27, N-[3-(4-Methylpiperazino)propyl]-1-methyl-4-imidazolesulfonamide dihydrogenfumarate] | 2.6 | 32.6% | inhibition in vivo at 20 mg/kg [2, 7]: 23%; LD50 at 168 h ([3]; iv): > 100 mg/kg
3 | Cn1cnc(S(=O)(=O)N2CCN(c3ccc(O)cc3)CC2)c1Cl [Example 40] | 3.18 | 34.7% | inhibition in vivo at 10 mg/kg [2, 6]: 17%; LD50 at 168 h ([3]; ip): > 1200 mg/kg
4 | Cn1cnc(S(=O)(=O)Oc2ccc(N3CCN(S(=O)(=O)c4ncn(C)c4Cl)CC3)cc2)c1Cl [Example 41, 1-(1-Methyl-5-chloro-4-imidazolesulfonyl)4-[4-(1-methyl-5-chloro-4-imidazolesulfonyloxy)phenyl]piperazine] | 2.18 | 18.5% | –
5 | Cn1cnc(S(=O)(=O)NC(CN2CCOCC2)CN2CCOCC2)c1 [Example 38, N-(1,3-Dimorpholino-2-propyl)-1-methyl-4-imidazolesulfonamide] | 2.18 | 10.1% | inhibition in vivo at 10 mg/kg [2, 6]: 21%
6 | 1-[3-(1-methyl-5-imidazolesulfonyl)-aminopropyl]-2-pyrrolidinone [Example 43] | 2.29 | – | Percentage change (TI of ischemic treated muscle vs TI of normal non-treated muscle) [1, 5]: +29.4%; Percentage change vs control (inhibition of laser-induced thrombosis) ([2]; 20 mg/kg p.o.): 15%
7 | Cn1cnc(S(=O)(=O)N2CCSCC2)c1 [Example 42, 4-(1-Methyl-4-imidazolesulfonyl)tetrahydro-4H-1,4-thiazine] | 2.84 | 24.6% | –
8 | CCCCN(CCCN1CCOCC1)S(=O)(=O)c1cn(C)cn1.Cl [Example 15, N-butyl-N-(3-morpholino-1-propyl)-1-methyl-4-imidazolesulfonamide hydrochloride] | 1.96 | 10.9% | –
9 | Cl.Cn1cnc(S(=O)(=O)NCCCN2CCN(Cc3ccccc3)CC2)c1 [Example 26, N-[3-(4-benzyl-1-piperazinyl)-propyl]-1-methyl-4-imidazolesulfonamide hydrochloride] | 2.49 | 25.7% | inhibition in vivo at 10 mg/kg [2, 6]: 24%
10 | CNCCCNS(=O)(=O)c1cn(C)cn1.Cl [Example 62, N-(3-Methylamino-1-propyl)-1-methyl-4-imidazolesulfonamide hydrochloride] | 2.5 | 27.8% | –
11 | Cn1cnc(S(=O)(=O)N2CCS(=O)(=O)CC2)c1 [Example 57, 4-(1-Methyl-4-imidazolesulfonyl)tetrahydro-4H-1,4-thiazine-1,1-dioxide] | – | – | inhibition in vivo at 10 mg/kg [2, 6]: 19%
12 | Cn1cnc(S(=O)(=O)NCCC[N+]2(C)CCOCC2)c1 [Example 56, 4-Methyl-4-[3-(1-methyl-4-imidazolesulfamoyl)-1-propyl]morpholinium iodide] | – | – | inhibition in vivo at 10 mg/kg [2, 6]: 24%; LD50 at 168 h ([3]; iv): > 100 mg/kg
13 | CC(CNS(=O)(=O)c1cn(C)cn1)CN1CCOCC1.Cl (stereo not shown) [Example 12, N-(3-morpholino-2-methyl-1-propyl)-1-methyl-4-imidazolesulfonamide hydrochloride] | – | – | inhibition in vivo at 20 mg/kg [2, 7]: 24%; LD50 at 168 h ([3]; iv): > 100 mg/kg
14 | CN1CCCC1CCNS(=O)(=O)c1cn(C)cn1.Cl (stereo not shown) [Example 21, N-[2-(1-methyl-2-pyrrolidinyl)-ethyl]-1-methyl-4-imidazolesulfonamide hydrochloride] | 2.34 | 19.4% | inhibition in vivo at 20 mg/kg [2, 7]: 24%
15 | Cn1cnc(S(=O)(=O)O)c1 [Example 3, 1-Methyl-4-imidazolesulfonic acid] | 2.26 | 7.1% | inhibition in vivo at 20 mg/kg [2, 7]: 23%
16 | Cn1cnc(S(=O)(=O)NCCc2ccc(OCC(=O)O)cc2)c1Cl [Example 52, 4-[2-(5-Chloro-1-methyl-4-imidazolesulfonyl)aminoethyl]phenoxyacetic acid] | 2.16 | 17.4% | –
17 | Cl.Cn1cnc(S(=O)(=O)NCCN2CCCC2)c1 [Example 20, N-(2-pyrrolidinoethyl)-1-methyl-4-imidazolesulfonamide hydrochloride] | 2.56 | 23.1% | –
18 | Cn1cnc(S(=O)(=O)NCCc2ccc(OCC(=O)O)cc2)c1 [Example 51, 4-[2-(1-Methyl-4-imidazolesulfonyl)aminoethyl]phenoxyacetic acid] | 2.92 | 23.7% | –
19 | CCOC(=O)COc1ccc(N2CCN(S(=O)(=O)c3ncn(C)c3Cl)CC2)cc1 [Example 58, Ethyl 4-[4-(5-chloro-1-methyl-4-imidazolesulfonyl)piperazinyl]phenoxyacetate] | 2.07 | -1.9% | –
20 | Cc1nc(S(=O)(=O)NCCCN2CCOCC2)cn1C.Cl [Example 33, N-(3-Morpholinopropyl)-1,2-dimethyl-4-imidazolesulfonamide hydrochloride] | 2.30 | 12.2% | inhibition in vivo at 10 mg/kg [2, 6]: 18%
21 | COCCN(CCCNS(=O)(=O)c1cn(C)cn1)CCOC [Example 23] | 2.18 | 23.1% | –
22 | Cl.Cn1cnc(S(=O)(=O)NCCCN2CCSCC2)c1 [Example 13, N-(3-thiomorpholinopropyl)-1-methyl-4-imidazolesulfonamide hydrochloride] | 2.95 | -10.1% | inhibition in vivo at 20 mg/kg [2, 7]: 14%
23 | Cn1cnc(S(=O)(=O)NCCCCN2CCC3(CC2)OCCO3)c1 [Example 19, hydrochloride] | 2.20 | – | change in vivo at 6 mg/kg [1]: 11.1%
24 | Cn1cnc(S(=O)(=O)NCCN2CCOCC2)c1 [Example 9, N-(2-morpholinoethyl)-1-methyl-4-imidazolesulfonamide] | 2.47 | 10.3% | –
25 | Cn1cnc(S(=O)(=O)NCCCCCCNS(=O)(=O)c2ncn(C)c2Cl)c1Cl [Example 47, 1,6-bis(5-chloro-1-methyl-4-imidazolesulfonamido)hexane] | 2.46 | 6% | –
26 | CN(CCCNS(=O)(=O)c1cn(C)cn1)Cc1ccccc1 [Example 28, N-[3-(N-Benzyl-N-methylamino)-1-propyl]-1-methyl-4-imidazolesulfonamide hydrogenfumarate] | 2.27 | 14.6% | –
27 | Cl.Cn1cnc(S(=O)(=O)NCCCCCN2CCOCC2)c1 [Example 11, N-(5-morpholinopentyl)-1-methyl-4-imidazolesulfonamide hydrochloride] | 2.52 | 22.9% | –
28 | CCn1cnc(S(=O)(=O)NCCCN2CCOCC2)c1 [Example 37, N-(3-Morpholinopropyl)-1-ethyl-4-imidazolesulfonamide hydrogenfumarate] | 2.09 | -7.9% | –
29 | Cn1cnc(S(=O)(=O)NCCc2ccc(O)cc2)c1 [Example 45, N-(4-hydroxyphenethyl)-1-methyl-4-imidazolesulfonamide] | 2.14 | 16.3% | –
30 | CC1CCCCN1CCCNS(=O)(=O)c1cn(C)cn1.Cl (stereo not shown) [Example 17, N-[3-(2-methylpiperidino)-propyl]-1-methyl-4-imidazolesulfonamide hydrochloride] | 2.04 | -14.3% | –
